According to ChEMBL document CHEMBL1909294, “Translating clinical findings into knowledge in drug safety evaluation--drug induced liver injury prediction system (DILIps)” (PLoS Comput Biol, 2011):

Experiments:
[1] = system: Hepatotoxicity;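 as to HepSE Combined Scores: combined hepatic side effect score as listed in the training data of the Drug Induced Liver Injury Prediction System (DILIps)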;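 as to HepSE bilirubinemia: bilirubinemia hepatic side effect score drawn from the DILIps training data, a prediction system for drug-induced liver injury; call rule not given here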;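 as to HepSE hepatomegaly: hepatic side effect score for hepatomegaly, taken from the training set of the DILIps drug-induced liver injury prediction system; call rule not given here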;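 as to HepSE jaundice: Jaundice-related hepatic side-effect score drawn from the training data of the DILIps (drug-induced liver injury prediction system); call rule not given here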;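 as to HepSE liver fatty: hepatic side effect score for fatty liver, taken from the DILIps training set for predicting drug-induced liver injury; call rule not given here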;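 as to HepSE liver function tests abnormal: hepatic side effect score taken from the DILIps (drug-induced liver injury prediction system) training data, here covering abnormal liver function test findings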
[2] = system: Hepatotoxicity; remark: listed apart in the source;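 as to HepSE Combined Scores: combined hepatic side effect score as listed in the training data of the Drug Induced Liver Injury Prediction System (DILIps)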;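 as to HepSE bilirubinemia: bilirubinemia hepatic side effect score drawn from the DILIps training data, a prediction system for drug-induced liver injury; call rule not given here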;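 as to HepSE hepatomegaly: hepatic side effect score for hepatomegaly, taken from the training set of the DILIps drug-induced liver injury prediction system; call rule not given here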;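 as to HepSE jaundice: Jaundice-related hepatic side-effect score drawn from the training data of the DILIps (drug-induced liver injury prediction system); call rule not given here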;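 as to HepSE liver fatty: hepatic side effect score for fatty liver, taken from the DILIps training set for predicting drug-induced liver injury; call rule not given here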;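 as to HepSE liver function tests abnormal: hepatic side effect score taken from the DILIps (drug-induced liver injury prediction system) training data, here covering abnormal liver function test findings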
[3] = system: Hepatotoxicity; remark: listed apart in the source;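 as to HepSE Combined Scores: combined hepatic side effect score as listed in the training data of the Drug Induced Liver Injury Prediction System (DILIps)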;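 as to HepSE bilirubinemia: bilirubinemia hepatic side effect score drawn from the DILIps training data, a prediction system for drug-induced liver injury; call rule not given here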;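 as to HepSE hepatomegaly: hepatic side effect score for hepatomegaly, taken from the training set of the DILIps drug-induced liver injury prediction system; call rule not given here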;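 as to HepSE jaundice: Jaundice-related hepatic side-effect score drawn from the training data of the DILIps (drug-induced liver injury prediction system); call rule not given here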;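 as to HepSE liver fatty: hepatic side effect score for fatty liver, taken from the DILIps training set for predicting drug-induced liver injury; call rule not given here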;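 as to HepSE liver function tests abnormal: hepatic side effect score taken from the DILIps (drug-induced liver injury prediction system) training data, here covering abnormal liver function test findings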
[4] = system: Hepatotoxicity; remark: listed apart in the source;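 as to HepSE Combined Scores: combined hepatic side effect score as listed in the training data of the Drug Induced Liver Injury Prediction System (DILIps)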;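 as to HepSE bilirubinemia: bilirubinemia hepatic side effect score drawn from the DILIps training data, a prediction system for drug-induced liver injury; call rule not given here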;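 as to HepSE hepatomegaly: hepatic side effect score for hepatomegaly, taken from the training set of the DILIps drug-induced liver injury prediction system; call rule not given here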;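 as to HepSE liver fatty: hepatic side effect score for fatty liver, taken from the DILIps training set for predicting drug-induced liver injury; call rule not given here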;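 as to HepSE liver function tests abnormal: hepatic side effect score taken from the DILIps (drug-induced liver injury prediction system) training data, here covering abnormal liver function test findings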
[5] = system: Hepatotoxicity; remark: listed apart in the source
[6] = system: Hepatotoxicity; remark: listed apart in the source
[7] = system: Hepatotoxicity; remark: listed apart in the source
[8] = system: Hepatotoxicity; remark: listed apart in the source
[9] = system: Hepatotoxicity; remark: listed apart in the source
[10] = system: Hepatotoxicity; remark: listed apart in the source
[11] = system: Hepatotoxicity; remark: listed apart in the source
[12] = system: Hepatotoxicity; remark: listed apart in the source
[13] = system: Hepatotoxicity; remark: listed apart in the source
[14] = system: Hepatotoxicity; remark: listed apart in the source

Row | SMILES | HepSE_bilirubinemia [1] | HepSE_liver fatty [2] | HepSE_liver function tests abnormal [3] | HepSE_hepatomegaly [4] | HepSE_Combined Scores [5] | HepSE_jaundice [6] | HepSE_cirrhosis [7] | HepSE_hepatitis [8] | HepSE_liver disease [9] | HepSE_elevated liver function tests [10] | HepSE_hepatic failure [11] | HepSE_cholecystitis [12] | HepSE_cholelithiasis [13] | HepSE_hepatic necrosis [14] | other results
1 | CCOc1nc2cccc(C(=O)O)c2n1Cc1ccc(-c2ccccc2-c2nnn[nH]2)cc1 | 0 | 0 | 0 | 0 | 2 | 0 | 0 | 1 | 0 | 0 | 0 | 0 | 1 | 0 | 
2 | CCCc1nc2c(C)cc(-c3nc4ccccc4n3C)cc2n1Cc1ccc(-c2ccccc2C(=O)O)cc1 | 0 | 0 | 0 | 0 | 1 | 0 | 0 | 0 | 1 | 0 | 0 | 0 | 0 | 0 | 
3 | CCCCC(=O)N(Cc1ccc(-c2ccccc2-c2nnn[nH]2)cc1)[C@H](C(=O)O)C(C)C | 0 | 0 | 0 | 0 | 1 | 0 | 0 | 1 | 0 | 0 | 0 | 0 | 0 | 0 | 
4 | FC(F)OC(F)C(F)(F)F (centres undefined) | 0 | 0 | 0 | 0 | 2 | 0 | 0 | 1 | 0 | 0 | 1 | 0 | 0 | 0 | 
5 | CC(=O)N[C@H]1[C@H](OCCCO)OC(C(=O)O)=C[C@@H]1O | 0 | 0 | 0 | 0 | 0 | 0 | 0 | 0 | 0 | 0 | 0 | 0 | 0 | 0 | 
6 | CCCCc1nc(N)[se]c1CCC | 0 | 0 | 0 | 0 | 0 | 0 | 0 | 0 | 0 | 0 | 0 | 0 | 0 | 0 | 
7 | FC(F)OC(F)(F)C(F)Cl (centres undefined) | 0 | 0 | 0 | 0 | 2 | 0 | 0 | 0 | 0 | 0 | 1 | 0 | 0 | 1 | 
8 | COc1ccc(-c2ccc3cc(C(=O)O)ccc3c2)cc1C12CC3CC(CC(C3)C1)C2 | 0 | 0 | 0 | 0 | 1 | 0 | 0 | 1 | 0 | 0 | 0 | 0 | 0 | 0 | 
9 | CNS(=O)(=O)Cc1ccc2[nH]cc(CCN(C)C)c2c1 | 0 | 0 | 1 | 0 | 2 | 0 | 0 | 0 | 0 | 1 | 0 | 0 | 0 | 0 | 
10 | C[C@@H](O)[C@H]1C(=O)N2C(C(=O)O)=C(S[C@@H]3CN[C@H](C(=O)Nc4cccc(C(=O)O)c4)C3)[C@H](C)[C@H]12 | 0 | 0 | 0 | 0 | 4 | 1 | 0 | 0 | 1 | 0 | 0 | 1 | 1 | 0 | 
11 | CC1=C(CC(=O)O)c2cc(F)ccc2/C1=C\c1ccc([S+](C)[O-])cc1 (centres undefined) | 0 | 0 | 0 | 0 | 4 | 1 | 0 | 1 | 0 | 0 | 1 | 1 | 0 | 0 | 
12 | CCCCC[C@](C)(O)/C=C/[C@@H]1[C@@H](C/C=C/CCCC(=O)O)[C@@H](O)C[C@H]1O | 0 | 0 | 0 | 0 | 0 | 0 | 0 | 0 | 0 | 0 | 0 | 0 | 0 | 0 | 
13 | CCCc1nn(C)c2c(=O)[nH]c(-c3cc(S(=O)(=O)N4CCN(C)CC4)ccc3OCC)nc12 | 0 | 0 | 1 | 0 | 1 | 0 | 0 | 0 | 0 | 0 | 0 | 0 | 0 | 0 | 
14 | CCC[C@@]1(CCc2ccccc2)CC(O)=C([C@H](CC)c2cccc(NS(=O)(=O)c3ccc(C(F)(F)F)cn3)c2)C(=O)O1 | 1 | 1 | 1 | 0 | 6 | 1 | 0 | 1 | 0 | 0 | 1 | 0 | 0 | 0 | 
15 | CCOC(=O)[C@H](CCc1ccccc1)N[C@@H](C)C(=O)N1CCC[C@H]1C(=O)O | 0 | 0 | 0 | 0 | 3 | 1 | 0 | 1 | 0 | 0 | 1 | 0 | 0 | 0 | 
16 | Nc1nc(N)c2nc(-c3ccccc3)c(N)nc2n1 | 0 | 0 | 0 | 0 | 1 | 1 | 0 | 0 | 0 | 0 | 0 | 0 | 0 | 0 | 
17 | CN1C(C(=O)Nc2ccccn2)=C(O)c2ccccc2S1(=O)=O [PIROXICAM] | 0 | 0 | 0 | 0 | 3 | 1 | 0 |  | 0 | 0 | 1 | 0 | 0 | 0 | 
18 | Nc1ccc(S(N)(=O)=O)cc1 [SULFANILAMIDE] |  |  |  |  |  |  |  |  |  |  |  |  |  |  | HepSE_bilirubinemia ([1]; Liver): 0; HepSE_liver fatty ([2]; Liver): 0; HepSE_hepatomegaly ([4]; Liver): 0; HepSE_Combined Scores ([5]; Liver): 0; HepSE_jaundice ([6]; Liver): 0; HepSE_cirrhosis ([7]; Liver): 0; HepSE_hepatitis ([8]; Liver): 0; HepSE_liver disease ([9]; Liver): 0; HepSE_hepatic failure ([11]; Liver): 0; HepSE_cholecystitis ([12]; Liver): 0; HepSE_cholelithiasis ([13]; Liver): 0; HepSE_hepatic necrosis ([14]; Liver): 0
